Source: PMC6688508 (Journal of medicinal chemistry, 2019)
“Also recorded” adds a separate entry of the source.

Assays:
human D1 [1] = target: T1, human D1 (Homo sapiens, UniProt P21728); test: D1R GS-mediated GS-cAMP accumulation assay; details: for fold reduced potency in the GS-cAMP accumulation assay compared to 1: compared to compound 1; for GS-cAMP accumulation activity in words: D1R GloSensor assay
human D1 [2] = target: T1, human D1; test: BRET β-arrestin2 recruitment assay; details: for β-arrestin2 recruitment activity in words: D1R BRET assay

T1 sequence (P21728 whole entry): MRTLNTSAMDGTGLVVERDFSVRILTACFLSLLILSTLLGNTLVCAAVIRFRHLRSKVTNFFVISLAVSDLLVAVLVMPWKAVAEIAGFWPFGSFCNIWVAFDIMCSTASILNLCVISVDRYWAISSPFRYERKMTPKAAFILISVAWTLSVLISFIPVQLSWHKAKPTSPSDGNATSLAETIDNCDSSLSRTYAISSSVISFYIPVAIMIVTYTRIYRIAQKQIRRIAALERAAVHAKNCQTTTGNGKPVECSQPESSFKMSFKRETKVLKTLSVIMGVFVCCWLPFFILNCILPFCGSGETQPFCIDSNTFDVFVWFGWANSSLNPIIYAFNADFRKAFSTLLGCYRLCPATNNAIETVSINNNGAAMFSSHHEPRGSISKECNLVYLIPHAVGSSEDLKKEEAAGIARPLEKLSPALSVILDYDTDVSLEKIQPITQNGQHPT

Cc1cc(Oc2nccc3occc23)ccc1-c1c(C)nc2cnccn12 [Compound 4, 4-(3-Methyl-4-(2-methylimidazo[1,2-a]pyrazin-3-yl)phenoxy)-furo[3,2-c]pyridine]
fold reduced potency in the GS-cAMP accumulation assay compared to 1 (human D1 [1]): 23 fold | fold reduction in potency for β-arrestin2 recruitment compared to 1 (human D1 [2]; compared to compound 1): 22 fold

Cc1cc(Oc2nccc3occc23)ccc1-c1cccc2nccn12 [Compound 5, 4-(4-(Imidazo[1,2-a]pyridin-5-yl)-3-methylphenoxy)furo[3,2-c]-pyridine]
fold reduced potency in the GS-cAMP accumulation assay compared to 1 (human D1 [1]): approximately 10 fold

COC(=O)c1cccn2c(-c3ccc(Oc4nccc5occc45)cc3C)cnc12 [Compound 6, Methyl-3-(4-(furo[3,2-c]pyridin-4-yloxy)-2-methylphenyl)-imidazo[1,2-a]pyridine-8-carboxylate]
β-arrestin2 recruitment activity in words (human D1 [2]): no detectable β-arrestin2 recruitment activity

Cc1cc(Oc2nccc3occc23)ccc1-c1nc(N)cnc1C [Compound 7, 6-(4-(Furo[3,2-c]pyridin-4-yloxy)-2-methylphenyl)-5-methylpyrazin-2-amine]
β-arrestin2 recruitment activity in words (human D1 [2]): minimal β-arr2 recruitment

CCOc1ncnc(C)c1-c1ccc(Oc2nccc3occc23)cc1C [Compound 8, 4-(4-(4-Ethoxy-6-methylpyrimidin-5-yl)-3-methylphenoxy)furo-[3,2-c]pyridine]
β-arrestin2 recruitment activity in words (human D1 [2]): not active in the β-arrestin2 recruitment assay

Cc1cc(Oc2nccc3occc23)ccc1-c1c(C)cnnc1C [Compound 9, 4-(4-(3,5-Dimethylpyridazin-4-yl)-3-methylphenoxy)furo[3,2-c]-pyridine]
EC50 (human D1 [1]): 1 nM | β-arrestin2 recruitment activity in words (human D1 [2]): not active in the β-arrestin2 recruitment assay

COc1ccc(-c2ccc(Oc3nccc4occc34)cc2C)c(C)n1 [Compound 11, 4-(4-(6-Methoxy-2-methylpyridin-3-yl)-3-methylphenoxy)furo-[3,2-c]pyridine]
β-arrestin2 recruitment activity in words (human D1 [2]): inactive in the β-arrestin2 recruitment assay

Cc1cc(Oc2nccc3occc23)ccc1-c1cncc(C(N)=O)c1 [Compound 12, 5-(4-(Furo[3,2-c]pyridin-4-yloxy)-2-methylphenyl)nicotinamide]
β-arrestin2 recruitment activity in words (human D1 [2]): inactive in the β-arrestin2 recruitment assay

Cc1cc(Oc2nccc3occc23)ccc1-c1ccc(C#N)cn1 [Compound 13, 6-(4-(Furo[3,2-c]pyridin-4-yloxy)-2-methylphenyl)nicotinonitrile]
β-arrestin2 recruitment activity in words (human D1 [2]): inactive in the β-arrestin2 recruitment assay

Cc1cc(-c2c(C)ncc3nccn23)ccc1Oc1nccc2occc12 [Compound 14, 4-(2-Methyl-4-(6-methylimidazo[1,2-a]pyrazin-5-yl)phenoxy)-furo[3,2-c]pyridine]
β-arrestin2 recruitment activity in words (human D1 [2]): completely eliminated β-arrestin2 recruitment activity

Cc1ncc2nccn2c1-c1ccc(Oc2nccc3occc23)c(C)c1C [Compound 15, 4-(2,3-Dimethyl-4-(6-methylimidazo[1,2-a]pyrazin-5-yl)-phenoxy)furo[3,2-c]pyridine]
β-arrestin2 recruitment activity in words (human D1 [2]): inactive in β-arrestin2 recruitment

Cc1ncc2nccn2c1-c1ccc(Oc2nccc3occc23)cc1C(F)(F)F [Compound 17, 4-(4-(6-Methylimidazo[1,2-a]pyrazin-5-yl)-3-(trifluoromethyl)-phenoxy)furo[3,2-c]pyridine]
GS-cAMP accumulation activity in words (human D1 [1]): potent full agonist of both signaling pathways | β-arrestin2 recruitment activity in words (human D1 [2]): potent full agonist of both signaling pathways

Cc1ncc2nccn2c1-c1ccc(Oc2nccc3occc23)c(C(F)(F)F)c1 [Compound 18, 4-(4-(6-Methylimidazo[1,2-a]pyrazin-5-yl)-2-(trifluoromethyl)-phenoxy)furo[3,2-c]pyridine]
GS-cAMP accumulation activity in words (human D1 [1]): completely devoid of activity in both the G protein and β-arrestin2 recruitment assays | β-arrestin2 recruitment activity in words (human D1 [2]): completely devoid of activity in both the G protein and β-arrestin2 recruitment assays

Cc1ncc2nccn2c1-c1cc(F)c(Oc2nccc3occc23)c(F)c1 [Compound 19, 4-(2,6-Difluoro-4-(6-methylimidazo[1,2-a]pyrazin-5-yl)-phenoxy)furo[3,2-c]pyridine]
β-arrestin2 recruitment activity in words (human D1 [2]): eliminated β-arrestin2 recruitment activity

Cc1cc(Nc2nccc3occc23)ccc1-c1c(C)ncc2nccn12 [Compound 20, N-(3-Methyl-4-(6-methylimidazo[1,2-a]pyrazin-5-yl)phenyl)furo-[3,2-c]pyridin-4-amine]
β-arrestin2 recruitment activity in words (human D1 [2]): only minimally active in the β-arrestin2 recruitment assay

Cc1cc(Oc2nccc3occ(C4CC4)c23)ccc1-c1c(C)ncc2nccn12 [Compound 26, 3-Cyclopropyl-4-(3-methyl-4-(6-methylimidazo[1,2-a]pyrazin-5-yl)phenoxy)furo[3,2-c]pyridine]
β-arrestin2 recruitment activity in words (human D1 [2]): diminished β-arrestin2 recruitment activity

Cc1cc(Oc2cccc3occc23)ccc1-c1c(C)ncc2nccn12 [Compound 27, 5-(4-(Benzofuran-4-yloxy)-2-methylphenyl)-6-methylimidazo-[1,2-a]pyrazine]
β-arrestin2 recruitment activity in words (human D1 [2]): inactivity for β-arrestin2 recruitment

Cc1cc(Oc2nccc3ccccc23)ccc1-c1c(C)ncc2nccn12 [Compound 28, 1-(3-Methyl-4-(6-methylimidazo[1,2-a]pyrazin-5-yl)phenoxy)-isoquinoline]
β-arrestin2 recruitment activity in words (human D1 [2]): inactive for β-arrestin2 recruitment

Cc1cc(Oc2nccn3ccnc23)ccc1-c1c(C)ncc2nccn12 [Compound 31, 5-(4-(Imidazo[1,2-a]pyrazin-8-yloxy)-2-methylphenyl)-6-methylimidazo[1,2-a]pyrazine]
β-arrestin2 recruitment activity in words (human D1 [2]): β-arrestin2 recruitment was undetectable

Cc1cc(Oc2nccc3[nH]ncc23)ccc1-c1c(C)ncc2nccn12 [Compound 32, 4-(3-Methyl-4-(6-methylimidazo[1,2-a]pyrazin-5-yl)phenoxy)-1H-pyrazolo[4,3-c]pyridine]
β-arrestin2 recruitment activity in words (human D1 [2]): not recovered

Cc1cc(Oc2ccccn2)ccc1-c1c(C)ncc2nccn12 [Compound 33, 6-Methyl-5-(2-methyl-4-(pyridin-2-yloxy)phenyl)imidazo[1,2-a]-pyrazine]
β-arrestin2 recruitment activity in words (human D1 [2]): very weak activity in the β-arrestin2 recruitment assay

Cc1cc(Oc2ncccc2Br)ccc1-c1c(C)ncc2nccn12 [Compound 34, 5-(4-((3-bromopyridin-2-yl)oxy)-2-methylphenyl)-6-methylimidazo[1,2-a]pyrazine]
GS-cAMP accumulation activity in words (human D1 [1]): completely inactive in both pathways | β-arrestin2 recruitment activity in words (human D1 [2]): completely inactive in both pathways

Cc1cc(-c2cccc3nccn23)ccc1Oc1nccc2occc12 [Compound 37, 4-(4-(Imidazo[1,2-a]pyridin-5-yl)-2-methylphenoxy)furo[3,2-c]-pyridine]
β-arrestin2 recruitment activity in words (human D1 [2]): eliminated β-arrestin2 recruitment activity

Cc1c(Oc2nccc3occc23)ccc(-c2cccc3nccn23)c1C [Compound 38, 4-(4-(Imidazo[1,2-a]pyridin-5-yl)-2,3-dimethylphenoxy)furo[3,2-c]pyridine]
β-arrestin2 recruitment activity in words (human D1 [2]): β-arrestin2 recruitment was eliminated

Cc1cc(Oc2nccc3occc23)cc(C)c1-c1cccc2nccn12 [Compound 39, 4-(4-(Imidazo[1,2-a]pyridin-5-yl)-3,5-dimethylphenoxy)furo[3,2-c]pyridine]
GS-cAMP accumulation activity in words (human D1 [1]): completely inactive | β-arrestin2 recruitment activity in words (human D1 [2]): completely inactive

FC(F)(F)c1cc(-c2cccc3nccn23)ccc1Oc1nccc2occc12 [Compound 42, 4-(4-(Imidazo[1,2-a]pyridin-5-yl)-2-(trifluoromethyl)phenoxy)-furo[3,2-c]pyridine]
GS-cAMP accumulation activity in words (human D1 [1]): inactive in both G protein and β-arrestin2 recruitment assays | β-arrestin2 recruitment activity in words (human D1 [2]): inactive in both G protein and β-arrestin2 recruitment assays

Fc1cc(-c2cccc3nccn23)cc(F)c1Oc1nccc2occc12 [Compound 43, 4-(2,6-Difluoro-4-(imidazo[1,2-a]pyridin-5-yl)phenoxy)furo[3,2-c]pyridine]
β-arrestin2 recruitment activity in words (human D1 [2]): minimal β-arrestin2 recruitment

FC(F)(F)c1cc(Oc2nccc3occ(C4CC4)c23)ccc1-c1cccc2nccn12 [Compound 44, 3-Cyclopropyl-4-(4-(imidazo[1,2-a]pyridin-5-yl)-3-(trifluoromethyl)phenoxy)furo[3,2-c]pyridine]
β-arrestin2 recruitment activity in words (human D1 [2]): abolished β-arrestin2 recruitment

FC(F)(F)c1cc(Oc2nccc3ccccc23)ccc1-c1cccc2nccn12 [Compound 45, 1-(4-(Imidazo[1,2-a]pyridin-5-yl)-3-(trifluoromethyl)phenoxy)-isoquinoline]
β-arrestin2 recruitment activity in words (human D1 [2]): β-arrestin2 recruitment still eliminated

FC(F)(F)c1cc(Oc2nccc3ccsc23)ccc1-c1cccc2nccn12 [Compound 46, 7-(4-(Imidazo[1,2-a]pyridin-5-yl)-3-(trifluoromethyl)phenoxy)-thieno[2,3-c]pyridine]
β-arrestin2 recruitment activity in words (human D1 [2]): minimal β-arr2 recruitment; also recorded: greatly weakened

FC(F)(F)c1cc(Oc2nccn3cccc23)ccc1-c1cccc2nccn12 [Compound 47, 5-(4-(Pyrrolo[1,2-a]pyrazin-1-yloxy)-2-(trifluoromethyl)phenyl)-imidazo[1,2-a]pyridine]
β-arrestin2 recruitment activity in words (human D1 [2]): completely abrogated

FC(F)(F)c1cc(Oc2ccccn2)ccc1-c1cccc2nccn12 [Compound 49, 5-(4-(Pyridin-2-yloxy)-2-(trifluoromethyl)phenyl)imidazo[1,2-a]-pyridine]
β-arrestin2 recruitment activity in words (human D1 [2]): no activity in the β-arrestin2 pathway

FC(F)(F)c1cc(Oc2cc(N3CCCCC3)ccn2)ccc1-c1cccc2nccn12 [Compound 50, 5-(4-((4-(Piperidin-1-yl)pyridin-2-yl)oxy)-2-(trifluoromethyl)-phenyl)imidazo[1,2-a]pyridine]
GS-cAMP accumulation activity in words (human D1 [1]): inactive in both the GS and β-arrestin2 pathways | β-arrestin2 recruitment activity in words (human D1 [2]): inactive in both the GS and β-arrestin2 pathways
